Measured values as given in PubChem BioAssay (NCI).
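Where inhibition never reached the appropriate level, the endpoint shown equals the highest concentration tested. Otherwise, values were interpolated linearly from a five-concentration, 48-hour dose response in 96-well plates. The concentration for full growth arrest is given as TGI.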

Key:
Experiment in all cases: NCI-60 cell line screen, 48 h
TK-10 renal = system: TK-10 renal
DU-145 prostate = system: DU-145 prostate
ACHN renal = system: ACHN renal
OVCAR-8 ovarian = system: OVCAR-8 ovarian
RPMI-8226 leukemia = system: RPMI-8226 leukemia
SF-295 CNS = system: SF-295 CNS
MOLT-4 leukemia = system: MOLT-4 leukemia
EKVX NSCLC = system: EKVX NSCLC
OVCAR-4 ovarian = system: OVCAR-4 ovarian
SNB-19 CNS = system: SNB-19 CNS
A498 renal = system: A498 renal
SF-268 CNS = system: SF-268 CNS
U251 CNS = system: U251 CNS
T-47D breast = system: T-47D breast
SK-MEL-2 melanoma = system: SK-MEL-2 melanoma
NCI-H226 lung = system: NCI-H226 lung
MCF7 breast = system: MCF7 breast
HOP-92 NSCLC = system: HOP-92 NSCLC
HL-60(TB) leukemia = system: HL-60(TB) leukemia
SK-MEL-28 melanoma = system: SK-MEL-28 melanoma
NCI/ADR-RES ovarian = system: NCI/ADR-RES ovarian
MDA-MB-231 breast = system: MDA-MB-231 breast
UACC-257 melanoma = system: UACC-257 melanoma
RXF 393 renal = system: RXF 393 renal
SK-OV-3 ovarian = system: SK-OV-3 ovarian
HT29 colon = system: HT29 colon
HOP-62 NSCLC = system: HOP-62 NSCLC
MDA-N = system: MDA-N
NCI-H460 lung = system: NCI-H460 lung
UO-31 renal = system: UO-31 renal
A549 NSCLC = system: A549 NSCLC
CAKI-1 renal = system: CAKI-1 renal
KM12 colon = system: KM12 colon
UACC-62 melanoma = system: UACC-62 melanoma
CCRF-CEM leukemia = system: CCRF-CEM leukemia
MDA-MB-435 = system: MDA-MB-435
OVCAR-5 ovarian = system: OVCAR-5 ovarian
HS 578T breast = system: HS 578T breast
OVCAR-3 ovarian = system: OVCAR-3 ovarian
HCT-15 colon = system: HCT-15 colon
K-562 leukemia = system: K-562 leukemia
HCT-116 colon = system: HCT-116 colon
NCI-H23 lung = system: NCI-H23 lung
IGROV1 ovarian = system: IGROV1 ovarian
LOX IMVI melanoma = system: LOX IMVI melanoma
SF-539 CNS = system: SF-539 CNS
SK-MEL-5 melanoma = system: SK-MEL-5 melanoma
PC-3 prostate = system: PC-3 prostate
HCC-2998 colon = system: HCC-2998 colon
786-0 renal = system: 786-0 renal
COLO 205 colon = system: COLO 205 colon
BT-549 breast = system: BT-549 breast
M14 melanoma = system: M14 melanoma
SN12C renal = system: SN12C renal
SW-620 colon = system: SW-620 colon
SNB-75 CNS = system: SNB-75 CNS
NCI-H522 lung = system: NCI-H522 lung
MALME-3M melanoma = system: MALME-3M melanoma

In the case of `CO/C=C(/C(=O)OC)c1ccccc1Oc1c(F)c(F)c(F)c(F)c1F`, the TGI (TK-10 renal) is reported as 88.2 µM, the TGI (DU-145 prostate) is reported as over 100 µM and the TGI (ACHN renal) is reported as over 100 µM. For the same compound, the TGI (OVCAR-8 ovarian) was over 100 µM, the TGI (RPMI-8226 leukemia) was 41.2 µM and the TGI (SF-295 CNS) was over 100 µM. It also gave a TGI (MOLT-4 leukemia) of 30.4 µM, a TGI (EKVX NSCLC) of over 100 µM and a TGI (OVCAR-4 ovarian) of 85.4 µM. It also gave a TGI (SNB-19 CNS) of over 100 µM, a TGI (A498 renal) of 92.9 µM and a TGI (SF-268 CNS) of over 100 µM. It also gave a TGI (U251 CNS) of over 100 µM, a TGI (T-47D breast) of 73.1 µM and a TGI (SK-MEL-2 melanoma) of 58.1 µM. For the same compound, the TGI (NCI-H226 lung) was over 100 µM, the TGI (MCF7 breast) was over 100 µM and the TGI (HOP-92 NSCLC) was 69.2 µM. For the same compound, the TGI (HL-60(TB) leukemia) was 5.72 µM, the TGI (SK-MEL-28 melanoma) was over 100 µM and the TGI (NCI/ADR-RES ovarian) was over 100 µM. The TGI (MDA-MB-231 breast) was over 100 µM, the TGI (UACC-257 melanoma) was 82.7 µM and the TGI (RXF 393 renal) was 63.8 µM. The TGI (SK-OV-3 ovarian) was over 100 µM, the TGI (HT29 colon) was over 100 µM and the TGI (HOP-62 NSCLC) was over 100 µM. It also gave a TGI (MDA-N) of over 100 µM, a TGI (NCI-H460 lung) of over 100 µM and a TGI (UO-31 renal) of over 100 µM. It also gave a TGI (A549 NSCLC) of over 100 µM, a TGI (CAKI-1 renal) of 66.5 µM and a TGI (KM12 colon) of over 100 µM. The TGI (UACC-62 melanoma) was 68.5 µM, the TGI (CCRF-CEM leukemia) was 98.5 µM and the TGI (MDA-MB-435) was 77.8 µM. For the same compound, the TGI (OVCAR-5 ovarian) was over 100 µM, the TGI (HS 578T breast) was 86 µM and the TGI (OVCAR-3 ovarian) was 62.4 µM. It also gave a TGI (HCT-15 colon) of over 100 µM, a TGI (K-562 leukemia) of over 100 µM and a TGI (HCT-116 colon) of 56 µM. It also gave a TGI (NCI-H23 lung) of over 100 µM, a TGI (IGROV1 ovarian) of 97.7 µM and a TGI (LOX IMVI melanoma) of over 100 µM. For the same compound, the TGI (SF-539 CNS) was over 100 µM, the TGI (SK-MEL-5 melanoma) was 40.8 µM and the TGI (PC-3 prostate) was over 100 µM. It also gave a TGI (HCC-2998 colon) of over 100 µM, a TGI (786-0 renal) of over 100 µM and a TGI (COLO 205 colon) of 35.3 µM. For the same compound, the TGI (BT-549 breast) was over 100 µM, the TGI (M14 melanoma) was over 100 µM and the TGI (SN12C renal) was over 100 µM.

For `CN(C)c1ccc(/C=C2\N=C(N/N=C/c3ccc(N(C)C)cc3)NC2=O)cc1`, the TGI (TK-10 renal) was over 100 µM, the TGI (DU-145 prostate) was 96 µM and the TGI (ACHN renal) was over 100 µM. The TGI (OVCAR-8 ovarian) was 72.7 µM, the TGI (RPMI-8226 leukemia) was over 100 µM and the TGI (SF-295 CNS) was over 100 µM. For the same compound, the TGI (MOLT-4 leukemia) was over 100 µM, the TGI (EKVX NSCLC) was over 100 µM and the TGI (OVCAR-4 ovarian) was over 100 µM. For the same compound, the TGI (SNB-19 CNS) was over 100 µM, the TGI (A498 renal) was over 100 µM and the TGI (SW-620 colon) was over 100 µM. It also gave a TGI (SF-268 CNS) of over 100 µM, a TGI (U251 CNS) of over 100 µM and a TGI (T-47D breast) of over 100 µM. For the same compound, the TGI (SK-MEL-2 melanoma) was over 100 µM, the TGI (NCI-H226 lung) was over 100 µM and the TGI (SNB-75 CNS) was over 100 µM. For the same compound, the TGI (MCF7 breast) was over 100 µM, the TGI (HOP-92 NSCLC) was 98.4 µM and the TGI (HL-60(TB) leukemia) was over 100 µM. The TGI (SK-MEL-28 melanoma) was over 100 µM, the TGI (NCI-H522 lung) was over 100 µM and the TGI (NCI/ADR-RES ovarian) was over 100 µM. The TGI (MDA-MB-231 breast) was over 100 µM, the TGI (UACC-257 melanoma) was over 100 µM and the TGI (RXF 393 renal) was 53.8 µM. It also gave a TGI (SK-OV-3 ovarian) of over 100 µM, a TGI (HT29 colon) of over 100 µM and a TGI (HOP-62 NSCLC) of over 100 µM. The TGI (MDA-N) was over 100 µM, the TGI (NCI-H460 lung) was over 100 µM and the TGI (UO-31 renal) was over 100 µM. It also gave a TGI (A549 NSCLC) of over 100 µM, a TGI (CAKI-1 renal) of over 100 µM and a TGI (MALME-3M melanoma) of over 100 µM. For the same compound, the TGI (KM12 colon) was over 100 µM, the TGI (UACC-62 melanoma) was over 100 µM and the TGI (CCRF-CEM leukemia) was over 100 µM. For the same compound, the TGI (MDA-MB-435) was over 100 µM, the TGI (OVCAR-5 ovarian) was over 100 µM and the TGI (HS 578T breast) was over 100 µM. It also gave a TGI (OVCAR-3 ovarian) of over 100 µM, a TGI (HCT-15 colon) of over 100 µM and a TGI (HCT-116 colon) of over 100 µM. For the same compound, the TGI (NCI-H23 lung) was over 100 µM, the TGI (IGROV1 ovarian) was over 100 µM and the TGI (SK-MEL-5 melanoma) was over 100 µM. For the same compound, the TGI (PC-3 prostate) was over 100 µM, the TGI (HCC-2998 colon) was over 100 µM and the TGI (786-0 renal) was over 100 µM. It also gave a TGI (COLO 205 colon) of over 100 µM, a TGI (BT-549 breast) of over 100 µM and a TGI (M14 melanoma) of over 100 µM. It also gave a TGI (SN12C renal) of over 100 µM.

Compound `C=C1C(=O)C2=C[C@H]1C[C@H](O)C(=O)[C@]1(C)CCCC(C)(C)[C@H]1C[C@H]2O` has a TGI (TK-10 renal) of 2.08 µM, a TGI (DU-145 prostate) of 4.04 µM and a TGI (ACHN renal) of 1.65 µM. For the same compound, the TGI (OVCAR-8 ovarian) was 5.93 µM, the TGI (RPMI-8226 leukemia) was 1.02 µM and the TGI (SF-295 CNS) was 20.5 µM. For the same compound, the TGI (MOLT-4 leukemia) was 10.3 µM, the TGI (EKVX NSCLC) was 3.31 µM and the TGI (OVCAR-4 ovarian) was 19.2 µM. It also gave a TGI (SNB-19 CNS) of 29.8 µM, a TGI (A498 renal) of 3.73 µM and a TGI (SW-620 colon) of 1.95 µM. For the same compound, the TGI (SF-268 CNS) was 13.9 µM, the TGI (U251 CNS) was 2.6 µM and the TGI (T-47D breast) was 2.36 µM. It also gave a TGI (SK-MEL-2 melanoma) of 20.9 µM, a TGI (NCI-H226 lung) of 23 µM and a TGI (SNB-75 CNS) of 17.4 µM. It also gave a TGI (MCF7 breast) of 1.63 µM, a TGI (HOP-92 NSCLC) of 3.01 µM and a TGI (HL-60(TB) leukemia) of 1.03 µM. The TGI (SK-MEL-28 melanoma) was 3.44 µM, the TGI (NCI-H522 lung) was 1.41 µM and the TGI (NCI/ADR-RES ovarian) was 3.16 µM. It also gave a TGI (MDA-MB-231 breast) of 2.64 µM, a TGI (UACC-257 melanoma) of 4.27 µM and a TGI (RXF 393 renal) of 1.3 µM. The TGI (SK-OV-3 ovarian) was 25.4 µM, the TGI (HT29 colon) was 2.85 µM and the TGI (HOP-62 NSCLC) was 25.5 µM. For the same compound, the TGI (MDA-N) was 4.06 µM, the TGI (NCI-H460 lung) was 8.77 µM and the TGI (UO-31 renal) was 5.27 µM. The TGI (A549 NSCLC) was 2.81 µM, the TGI (CAKI-1 renal) was 2.85 µM and the TGI (MALME-3M melanoma) was 2.05 µM. For the same compound, the TGI (KM12 colon) was 5.78 µM, the TGI (UACC-62 melanoma) was 3.05 µM and the TGI (CCRF-CEM leukemia) was 0.326 µM. For the same compound, the TGI (MDA-MB-435) was 10.2 µM, the TGI (OVCAR-5 ovarian) was 3.72 µM and the TGI (HS 578T breast) was 8.61 µM. The TGI (OVCAR-3 ovarian) was 4 µM, the TGI (HCT-15 colon) was 1.96 µM and the TGI (K-562 leukemia) was 0.824 µM. For the same compound, the TGI (HCT-116 colon) was 3 µM, the TGI (NCI-H23 lung) was 3.15 µM and the TGI (IGROV1 ovarian) was 12.8 µM. For the same compound, the TGI (LOX IMVI melanoma) was 2.14 µM, the TGI (SF-539 CNS) was 2.6 µM and the TGI (PC-3 prostate) was 3.62 µM. It also gave a TGI (786-0 renal) of 2.14 µM, a TGI (COLO 205 colon) of 1.85 µM and a TGI (BT-549 breast) of 5.66 µM. For the same compound, the TGI (M14 melanoma) was 2.85 µM and the TGI (SN12C renal) was 4.07 µM.
